Earlier results as cited in patent US20120275998A1, “BIODEGRADABLE STENT COMPRISING AN ACID SCAVENGING AGENT” (priority 2009, published 2012).

In the case of `OCCN(CCO)c1nc(N2CCCCC2)c2nc(N(CCO)CCO)nc(N3CCCCC3)c2n1` [Dipyridamole, 2,6-bis(dithioethanolamino)-4,8-dipiperidinopyrimido(5,4-d)pyrimidine], the “Soluble (solvents)” value (solvents in which the substance is soluble) is listed as “Ethanol, dimethyl sulfoxide” and the Water solubility (water) is listed as “slightly soluble in water”.
